The text below walks through data of patent US11370798B2 (Vertex Pharmaceuticals Incorporated, priority 2012, dated 2022).

This assay deals with HCT116 colorectal cancer cells. Nature of the assay: Cisplatin sensitization assay (96 h cell viability MTS).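 Note: Test-compound concentration that lowers the Cisplatin IC50 by a set fold.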 It is filed as cell-based. Conditions: compound and Cisplatin added simultaneously, Cisplatin sensitization value. A digest of the protocol:
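Viability read by MTS (1 h at 37° C) after 96 h co-exposure at 37° C, 5% CO2. Test compound and cisplatin were dosed simultaneously in a full concentration matrix, each 2-fold serially diluted from 10 μM final; sensitization values binned in μM.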

As for `COc1cncc(NC(=O)c2c(N)nn3cc(F)cnc23)c1-c1cncn1C` [I-C-81, 2-amino-6-fluoro-N-(5-methoxy-4-(1-methyl-1H-imidazol-5-yl)pyridin-3-yl)pyrazolo[1,5-a]pyrimidine-3-carboxamide], the “Cisplatin Sensitization Assay” value is “+++ (Cisplatin sensitization value of <0.02 μM)”. As for `COc1cncc(NC(=O)c2c(N)nn3cc(F)cnc23)c1-c1cccnc1` [I-C-82, 2-amino-6-fluoro-N-(5′-methoxy-[3,4′-bipyridin]-3′-yl)pyrazolo[1,5-a]pyrimidine-3-carboxamide], the entry is “+++ (Cisplatin sensitization value of <0.02 μM)”; as for `COCCn1cncc1-c1ccncc1NC(=O)c1c(N)nn2cc(F)cnc12` [I-C-83, 2-amino-6-fluoro-N-(4-(1-(2-methoxyethyl)-1H-imidazol-5-yl)pyridin-3-yl)pyrazolo[1,5-a]pyrimidine-3-carboxamide], “++ (Cisplatin sensitization value>0.02 μM but <0.2 μM)”.

On to `COc1cncc(NC(=O)c2c(N)nn3cc(F)cnc23)c1C1CC1` [I-C-84, 2-amino-N-(4-cyclopropyl-5-methoxypyridin-3-yl)-6-fluoropyrazolo[1,5-a]pyrimidine-3-carboxamide], for which the “Cisplatin Sensitization Assay” value is “++ (Cisplatin sensitization value>0.02 μM but <0.2 μM)”.

Consider `CN1CCN(C(=O)C2CCN(c3ccncc3NC(=O)c3c(N)nn4cc(F)cnc34)CC2)CC1` [I-G-1, 2-amino-6-fluoro-N-(4-(4-(4-methylpiperazine-1-carbonyl)piperidin-1-yl)pyridin-3-yl)pyrazolo[1,5-a]pyrimidine-3-carboxamide], for which the “Cisplatin Sensitization Assay” value was “+++ (Cisplatin sensitization value of <0.02 μM)”. As for `CN(C)C(=O)C1CCN(c2ccncc2NC(=O)c2c(N)nn3cc(F)cnc23)CC1` [I-G-2, 2-amino-N-(4-(4-(dimethylcarbamoyl)piperidin-1-yl)pyridin-3-yl)-6-fluoropyrazolo[1,5-a]pyrimidine-3-carboxamide], the entry is “+++ (Cisplatin sensitization value of <0.02 μM)”; as for `CN1CCN(C(=O)C2CCN(c3c(Cl)cncc3NC(=O)c3c(N)nn4cc(F)cnc34)CC2)CC1` [I-G-3, 2-amino-N-(5-chloro-4-(4-(4-methylpiperazine-1-carbonyl)piperidin-1-yl)pyridin-3-yl)-6-fluoropyrazolo[1,5-a]pyrimidine-3-carboxamide], “+++ (Cisplatin sensitization value of <0.02 μM)”. Next, `CN1CCN(C(=O)C2CCN(c3c(F)cncc3NC(=O)c3c(N)nn4cc(F)cnc34)CC2)CC1` [I-G-4, 2-amino-6-fluoro-N-(5-fluoro-4-(4-(4-methylpiperazine-1-carbonyl)piperidin-1-yl)pyridin-3-yl)pyrazolo[1,5-a]pyrimidine-3-carboxamide]: “+++ (Cisplatin sensitization value of <0.02 μM)”. As for `CN1CCN(C(=O)C2CCN(c3c(F)cncc3NC(=O)c3c(N)nn4cc(Cl)cnc34)CC2)CC1` [I-G-5, 2-amino-6-chloro-N-(5-fluoro-4-(4-(4-methylpiperazine-1-carbonyl)piperidin-1-yl)pyridin-3-yl)pyrazolo[1,5-a]pyrimidine-3-carboxamide], the entry is “+++ (Cisplatin sensitization value of <0.02 μM)”; as for `CN1CCCN(C(=O)C2CCN(c3c(F)cncc3NC(=O)c3c(N)nn4cc(F)cnc34)CC2)CC1` [I-G-6, 2-amino-6-fluoro-N-(5-fluoro-4-(4-(4-methyl-1,4-diazepane-1-carbonyl)piperidin-1-yl)pyridin-3-yl)pyrazolo[1,5-a]pyrimidine-3-carboxamide], “+++ (Cisplatin sensitization value of <0.02 μM)”; as for `Nc1nn2cc(F)cnc2c1C(=O)Nc1cncc(F)c1N1CCC(C(=O)N2CCN3CCC2CC3)CC1` [I-G-7, N-(4-(4-(1,4-diazabicyclo[3.2.2]nonane-4-carbonyl)piperidin-1-yl)-5-fluoropyridin-3-yl)-2-amino-6-fluoropyrazolo[1,5-a]pyrimidine-3-carboxamide], “+++ (Cisplatin sensitization value of <0.02 μM)”. With `Nc1nn2cc(F)cnc2c1C(=O)Nc1cncc(F)c1N1CCC(C(=O)N2CCC2)CC1` [I-G-8, 2-amino-N-(4-(4-(azetidine-1-carbonyl)piperidin-1-yl)-5-fluoropyridin-3-yl)-6-fluoropyrazolo[1,5-a]pyrimidine-3-carboxamide], the “Cisplatin Sensitization Assay” value is reported as “+++ (Cisplatin sensitization value of <0.02 μM)”. For the compound `CCN1CCN(C(=O)C2CCN(c3c(F)cncc3NC(=O)c3c(N)nn4cc(F)cnc34)CC2)CC1` [I-G-9, 2-amino-N-(4-(4-(4-ethylpiperazine-1-carbonyl)piperidin-1-yl)-5-fluoropyridin-3-yl)-6-fluoropyrazolo[1,5-a]pyrimidine-3-carboxamide], the “Cisplatin Sensitization Assay” value is “+++ (Cisplatin sensitization value of <0.02 μM)”.

Take `Nc1nn2cc(F)cnc2c1C(=O)Nc1cncc(F)c1N1CCC(C(=O)N2CCN3CCCC3C2)CC1` (stereo not shown) [I-G-10, 2-amino-6-fluoro-N-(5-fluoro-4-(4-(octahydropyrrolo[1,2-a]pyrazine-2-carbonyl)piperidin-1-yl)pyridin-3-yl)pyrazolo[1,5-a]pyrimidine-3-carboxamide]: the “Cisplatin Sensitization Assay” value is listed as “+++ (Cisplatin sensitization value of <0.02 μM)”. Next, `CN(C)[C@@H]1CCN(C(=O)C2CCN(c3c(F)cncc3NC(=O)c3c(N)nn4cc(F)cnc34)CC2)C1` [I-G-11, (R)-2-amino-N-(4-(4-(3-(dimethylamino)pyrrolidine-1-carbonyl)piperidin-1-yl)-5-fluoropyridin-3-yl)-6-fluoropyrazolo[1,5-a]pyrimidine-3-carboxamide]: “+++ (Cisplatin sensitization value of <0.02 μM)”.

Turning to `Nc1nn2cc(F)cnc2c1C(=O)Nc1cncc(F)c1N1CCC(C(=O)N2CCNCC2)CC1` [I-G-12, 2-amino-6-fluoro-N-(5-fluoro-4-(4-(piperazine-1-carbonyl)piperidin-1-yl)pyridin-3-yl)pyrazolo[1,5-a]pyrimidine-3-carboxamide], the “Cisplatin Sensitization Assay” value is listed as “+++ (Cisplatin sensitization value of <0.02 μM)”.

As for `Nc1nn2cc(F)cnc2c1C(=O)Nc1cncc(F)c1N1CCC(C(=O)N2CCN(C3CC3)CC2)CC1` [I-G-13, 2-amino-N-(4-(4-(4-cyclopropylpiperazine-1-carbonyl)piperidin-1-yl)-5-fluoropyridin-3-yl)-6-fluoropyrazolo[1,5-a]pyrimidine-3-carboxamide], the “Cisplatin Sensitization Assay” value is recorded as “+++ (Cisplatin sensitization value of <0.02 μM)”.

For `Nc1nn2cc(F)cnc2c1C(=O)Nc1cncc(F)c1N1CCC(C(=O)N2CC3(COC3)C2)CC1` [I-G-14, N-(4-(4-(2-oxa-6-azaspiro[3.3]heptane-6-carbonyl)piperidin-1-yl)-5-fluoropyridin-3-yl)-2-amino-6-fluoropyrazolo[1,5-a]pyrimidine-3-carboxamide], the “Cisplatin Sensitization Assay” value was “+++ (Cisplatin sensitization value of <0.02 μM)”. For the compound `CN1CCN(C(=O)C2CCN(c3c(F)cncc3NC(=O)c3c(N)nn4cc(F)cnc34)CC2)CC1(C)C` [I-G-15, 2-amino-6-fluoro-N-(5-fluoro-4-(4-(3,3,4-trimethylpiperazine-1-carbonyl)piperidin-1-yl)pyridin-3-yl)pyrazolo[1,5-a]pyrimidine-3-carboxamide], the “Cisplatin Sensitization Assay” value was “+++ (Cisplatin sensitization value of <0.02 μM)”.
